Source: patent US8889688B2, “Piperazines as antimalarial agents” (Actelion Pharmaceuticals Ltd., priority 2011, dated 2014)
Where two headings read alike, the source gives them in different places.

What was measured:
[1] = system: P. berghei strain GFP-ANKA; test: In vivo antimalarial efficacy study in infected NMRI mice; conditions: Plasmodium berghei; female NMRI mice infected with P. berghei GFP-ANKA; single oral dose of 100 mg/kg 24 h after infection; parasitemia 48 h after drug treatment (day 3); read-out: Activity (inhibition of parasitemia) expressed as a percent relative to the control group
Protocol: In Vivo Antimalarial Efficacy Studies
In vivo antimalarial activity is assessed for groups of three female NMRI mice (20-22 g) intravenously infected on day 0 with P. berghei strain GFP-ANKA (0.2 mL heparinized saline suspension containing 2×10^7 parasitized erythrocytes). In control mice, parasitemia typically rises to approximately 40% by day 3 after infection. Compounds are formulated in Tween 80/ethanol (7%/3%) usually at concentrations of 10 mg/mL. Compounds are administered in a volume of 10 mL/kg orally as single doses (1×100 mg/kg, 24 h after infection). 48 h after drug treatment (day 3 post-infection), 1 μl tail blood is taken, resuspended in 1 mL PBS buffer and parasitemia determined with a FACScan (Becton Dickinson) by counting 100′000 red blood cells. Activity is calculated as the difference between the mean value of the control group and treated groups expressed as a percent relative to the control group.

[2] = system: erythrocytic stages of P. falciparum NF54; test: Plasmodium falciparum in vitro assay, [3H] hypoxanthine incorporation; type: cell-based; conditions: Plasmodium falciparum, Erythrocyte, 72 h, P. falciparum NF54 in human red blood cells, 48 h + 24 h incubation
Protocol: In Vitro Antimalarial Activity: Plasmodium falciparum In Vitro Assay In vitro activity against erythrocytic stages of P. falciparum in human red blood cells is determined using a [^3H] hypoxanthine incorporation assay. […] Thereafter, the parasite cultures incubated in screening medium containing washed human red blood cells at 2.5% hematocrit (0.3% parasitemia) are added to the serially diluted compounds and incubated in a humidifying atmosphere at 37° C., 4% CO2, 3% O2, and 93% N2. After 48 h, [^3H] hypoxanthine (0.5 μCi) is added to each well of a plate. The plates are incubated for a further 24 h under the same conditions then harvested with a Betaplate cell harvester (Wallac) and washed with distilled water. The dried filters are inserted into a plastic foil with 10 mL of scintillation fluid, and counted in a Betaplate liquid scintillation counter. IC50 values are calculated from sigmoidal inhibition curves using Microsoft Excel.

[3] = screening medium with Albumax (5 g/L), read-out: IC50 on NF54 (with Albumax)
[4] = screening medium with human serum (50% final concentration), read-out: IC50 on NF54 (with 50% Serum)

CC(=O)N1CCN(c2ccc(CN(C(=O)C=Cc3ccc(C(F)(F)F)cc3)[C@@H](Cc3ccccc3)C(=O)N3CCN(Cc4ccccc4)CC3)cc2)CC1 [Example 1, (S)-N-[4-(4-Acetyl-piperazin-1-yl)-benzyl]-N-[1-benzyl-2-(4-benzyl-piperazin-1-yl)-2-oxo-ethyl]-3-(4-trifluoromethyl-phenyl)-acrylamide, reference compound] was tested, and the inhibition in vivo at 100 mg/kg [1] was less than 40%, the IC50 [2, 3] was 5.1 nM and the IC50 [2, 4] was 27.6 nM.

For CCc1ccc(C=CC(=O)N(Cc2ccc(N3CCN(C(C)=O)CC3)cc2)[C@@H](Cc2ccccc2)C(=O)N2CCN(Cc3ccccc3)CC2)cc1 [Example 2, (S)-N-[4-(4-Acetyl-piperazin-1-yl)-benzyl]-N-[1-benzyl-2-(4-benzyl-piperazin-1-yl)-2-oxo-ethyl]-3-(4-ethyl-phenyl)-acrylamide], the inhibition in vivo at 100 mg/kg [1] was 94.1%, the IC50 [2, 3] was 2 nM and the IC50 [2, 4] was 10 nM.

CC(=O)N1CCN(c2ccc(CN(C(=O)C=Cc3ccc(C(C)(C)C)cc3)[C@@H](Cc3ccccc3)C(=O)N3CCN(Cc4ccccc4)CC3)cc2)CC1 [Example 3, (S)-N-[4-(4-Acetyl-piperazin-1-yl)-benzyl]-N-[1-benzyl-2-(4-benzyl-piperazin-1-yl)-2-oxo-ethyl]-3-(4-tert-butyl-phenyl)-acrylamide] was tested, and the inhibition in vivo at 100 mg/kg [1] was 98.7%, the IC50 [2, 3] was 1.9 nM and the IC50 [2, 4] was 8.5 nM.

CCOc1ccc(C=CC(=O)N(Cc2ccc(N3CCN(C(C)=O)CC3)cc2)[C@@H](Cc2ccccc2)C(=O)N2CCN(Cc3ccccc3)CC2)cc1 [Example 4, (S)-N-[4-(4-Acetyl-piperazin-1-yl)-benzyl]-N-[1-benzyl-2-(4-benzyl-piperazin-1-yl)-2-oxo-ethyl]-3-(4-ethoxy-phenyl)-acrylamide] gave an inhibition in vivo at 100 mg/kg [1] of 97.4%, an IC50 [2, 3] of 1.9 nM and an IC50 [2, 4] of 10 nM.

With COC(=O)c1ccc(C=CC(=O)N(Cc2ccc(N3CCN(C(C)=O)CC3)cc2)[C@@H](Cc2ccccc2)C(=O)N2CCN(Cc3ccccc3)CC2)cc1 [Example 5, (S)-4-(2-{[4-(4-Acetyl-piperazin-1-yl)-benzyl]-[1-benzyl-2-(4-benzyl-piperazin-1-yl)-2-oxo-ethyl]-carbamoyl}-vinyl)-benzoic acid methyl ester] the inhibition in vivo at 100 mg/kg [1] was less than 40%, the IC50 [2, 3] was 3.9 nM and the IC50 [2, 4] was 12 nM.

Work on CC(=O)N1CCN(c2ccc(CN(C(=O)C=Cc3ccc(S(C)(=O)=O)cc3)[C@@H](Cc3ccccc3)C(=O)N3CCN(Cc4ccccc4)CC3)cc2)CC1 [Example 6, (S)-N-[4-(4-Acetyl-piperazin-1-yl)-benzyl]-N-[1-benzyl-2-(4-benzyl-piperazin-1-yl)-2-oxo-ethyl]-3-(4-methanesulfonyl-phenyl)-acrylamide] yielded an inhibition in vivo at 100 mg/kg [1] of 80.4%, an IC50 [2, 3] of 9.4 nM and an IC50 [2, 4] of 32 nM.

In the case of CC(=O)Nc1ccc(C=CC(=O)N(Cc2ccc(N3CCN(C(C)=O)CC3)cc2)[C@@H](Cc2ccccc2)C(=O)N2CCN(Cc3ccccc3)CC2)cc1 [Example 7, (S)-3-(4-Acetylamino-phenyl)-N-[4-(4-acetyl-piperazin-1-yl)benzyl]-N-[1-benzyl-2-(4-benzyl-piperazin-1-yl)-2-oxo-ethyl]-acrylamide], the inhibition in vivo at 100 mg/kg [1] is reported as 44.7%, the IC50 [2, 3] is reported as 3.1 nM and the IC50 [2, 4] is reported as 40 nM.

In the case of CCCOc1ccc(C=CC(=O)N(Cc2ccc(N3CCN(C(C)=O)CC3)cc2)[C@@H](Cc2ccccc2)C(=O)N2CCN(Cc3ccccc3)CC2)cc1 [Example 8, (S)-N-[4-(4-Acetyl-piperazin-1-yl)-benzyl]-N-[1-benzyl-2-(4-benzyl-piperazin-1-yl)-2-oxo-ethyl]-3-(4-propoxy-phenyl)-acrylamide], the inhibition in vivo at 100 mg/kg [1] is reported as 99.4%, the IC50 [2, 3] is reported as 1.8 nM and the IC50 [2, 4] is reported as 13.4 nM.

CC(=O)N1CCN(c2ccc(CN(C(=O)C=Cc3ccc(OC(C)C)cc3)[C@@H](Cc3ccccc3)C(=O)N3CCN(Cc4ccccc4)CC3)cc2)CC1 [Example 9, (S)-N-[4-(4-Acetyl-piperazin-1-yl)-benzyl]-N-[1-benzyl-2-(4-benzyl-piperazin-1-yl)-2-oxo-ethyl]-3-(4-isopropoxy-phenyl)-acrylamide] was tested, and the inhibition in vivo at 100 mg/kg [1] was 99.1%, the IC50 [2, 3] was 2.4 nM and the IC50 [2, 4] was 7.3 nM.

CC(=O)N1CCN(c2ccc(CN(C(=O)C=Cc3ccc(C(C)C)cc3)[C@@H](Cc3ccccc3)C(=O)N3CCN(Cc4ccccc4)CC3)cc2)CC1 [Example 10, (S)-N-[4-(4-Acetyl-piperazin-1-yl)-benzyl]-N-[1-benzyl-2-(4-benzyl-piperazin-1-yl)-2-oxo-ethyl]-3-(4-isopropyl-phenyl)-acrylamide] was tested, and the inhibition in vivo at 100 mg/kg [1] was 96%, the IC50 [2, 3] was 3 nM and the IC50 [2, 4] was 8.6 nM.

CCOc1ccc(C=CC(=O)N(Cc2ccc(N3CCN(C(C)=O)CC3)cc2)[C@@H](Cc2ccccc2)C(=O)N2CCN(Cc3ccc(N(C)C)cc3)CC2)cc1 [Example 15, (S)-N-[4-(4-Acetyl-piperazin-1-yl)-benzyl]-N-{1-benzyl-2-[4-(4-dimethylamino-benzyl)-piperazin-1-yl]-2-oxo-ethyl}-3-(4-ethoxy-phenyl)-acrylamide] was tested, and the inhibition in vivo at 100 mg/kg [1] was 99%, the IC50 [2, 3] was 1.7 nM and the IC50 [2, 4] was 6.8 nM.

Compound CC(=O)N1CCN(c2ccc(CN(C(=O)C=Cc3ccc(S(C)(=O)=O)cc3)[C@@H](Cc3ccccc3)C(=O)N3CCN(Cc4ccc(N(C)C)cc4)CC3)cc2)CC1 [Example 16, (S)-N-[4-(4-Acetyl-piperazin-1-yl)-benzyl]-N-{1-benzyl-2-[4-(4-dimethylamino-benzyl)-piperazin-1-yl]-2-oxo-ethyl}-3-(4-methanesulfonyl-phenyl)-acrylamide] has an inhibition in vivo at 100 mg/kg [1] of 85.9%, an IC50 [2, 3] of 5.5 nM and an IC50 [2, 4] of 13.3 nM.

With CCCOc1ccc(C=CC(=O)N(Cc2ccc(N3CCN(C(C)=O)CC3)cc2)[C@@H](Cc2ccccc2)C(=O)N2CCN(Cc3ccc(N(C)C)cc3)CC2)cc1 [Example 18, (S)-N-[4-(4-Acetyl-piperazin-1-yl)-benzyl]-N-{1-benzyl-2-[4-(4-dimethylamino-benzyl)-piperazin-1-yl]-2-oxo-ethyl}-3-(4-propoxy-phenyl)-acrylamide] the inhibition in vivo at 100 mg/kg [1] was 99.1%, the IC50 [2, 3] was 2.5 nM and the IC50 [2, 4] was 11.8 nM.

CC(=O)N1CCN(c2ccc(CN(C(=O)C=Cc3ccc(OC(C)C)cc3)[C@@H](Cc3ccccc3)C(=O)N3CCN(Cc4ccc(N(C)C)cc4)CC3)cc2)CC1 [Example 19, (S)-N-[4-(4-Acetyl-piperazin-1-yl)-benzyl]-N-{1-benzyl-2-[4-(4-dimethylamino-benzyl)-piperazin-1-yl]-2-oxo-ethyl}-3-(4-isopropoxy-phenyl)-acrylamide] was tested, and the inhibition in vivo at 100 mg/kg [1] was 99.2%, the IC50 [2, 3] was 2.6 nM and the IC50 [2, 4] was 9.3 nM.

With CCc1ccc(C=CC(=O)N(Cc2ccc(N3CCN(C(C)=O)CC3)cc2)[C@@H](Cc2ccccc2)C(=O)N2CCN(Cc3ccc(N(C)C)cc3)CC2)cc1 [Example 20, (S)-N-[4-(4-Acetyl-piperazin-1-yl)-benzyl]-N-{1-benzyl-2-[4-(4-dimethylamino-benzyl)-piperazin-1-yl]-2-oxo-ethyl}-3-(4-ethyl-phenyl)-acrylamide] the inhibition in vivo at 100 mg/kg [1] was 98.5%, the IC50 [2, 3] was 1.2 nM and the IC50 [2, 4] was 7.1 nM.

CC(=O)N1CCN(c2ccc(CN(C(=O)C=Cc3ccc(C#N)cc3)[C@@H](Cc3ccccc3)C(=O)N3CCN(Cc4ccc(N(C)C)cc4)CC3)cc2)CC1 [Example 71, (S)-N-[4-(4-Acetyl-piperazin-1-yl)benzyl]-3-(4-cyanophenyl)-N-{1-(4-(4-(dimethylamino)benzyl)piperazin-1-yl)-1-oxo-3-phenylpropan-2-yl}acrylamide] showed an IC50 [2, 3] of 18 nM and an IC50 [2, 4] of 62 nM.

CC(=O)N1CCN(c2ccc(CN(C(=O)C=Cc3ccc(F)cc3)[C@@H](Cc3ccccc3)C(=O)N3CCN(Cc4ccc(N(C)C)cc4)CC3)cc2)CC1 [Example 72, (S)-N-[4-(4-Acetyl-piperazin-1-yl)benzyl]-N-{1-(4-(4-(dimethylamino)benzyl)piperazin-1-yl)-1-oxo-3-phenylpropan-2-yl}-3-(4-fluorophenyl)acrylamide] was tested, and the IC50 [2, 3] was 10 nM and the IC50 [2, 4] was 91 nM.

CC(=O)N1CCN(c2ccc(CN(C(=O)C=Cc3ccc(Cl)cc3)[C@@H](Cc3ccccc3)C(=O)N3CCN(Cc4ccc(N(C)C)cc4)CC3)cc2)CC1 [Example 73, (S)-N-[4-(4-Acetyl-piperazin-1-yl)benzyl]-3-(4-chlorophenyl)-N-{1-(4-(4-(dimethylamino)benzyl)piperazin-1-yl)-1-oxo-3-phenylpropan-2-yl}acrylamide] gave an IC50 [2, 3] of 3.3 nM and an IC50 [2, 4] of 26 nM.
